Data as given in ChEMBL document CHEMBL3351519, “Synthetic studies on mitotic kinesin Eg5 inhibitors: synthesis and structure-activity relationships of novel 2,4,5-substituted-1,3,4-thiadiazoline derivatives” (Bioorg Med Chem Lett, 2014).

Legend:
HCT-116 = assay: Induction of mitotic accumulation in human HCT116 cells Hoechst 33342 staining based by fluorescence microscopy; type: functional
[1] = Growth inhibition of human HCT116 cells; type: functional; conditions: HCT-116
[2] = molecular target: T1, Kinesin-like protein KIF11 (Homo sapiens, UniProt P52732); assay: Inhibition of Eg5 (unknown origin)
T1 sequence (P52732 whole entry): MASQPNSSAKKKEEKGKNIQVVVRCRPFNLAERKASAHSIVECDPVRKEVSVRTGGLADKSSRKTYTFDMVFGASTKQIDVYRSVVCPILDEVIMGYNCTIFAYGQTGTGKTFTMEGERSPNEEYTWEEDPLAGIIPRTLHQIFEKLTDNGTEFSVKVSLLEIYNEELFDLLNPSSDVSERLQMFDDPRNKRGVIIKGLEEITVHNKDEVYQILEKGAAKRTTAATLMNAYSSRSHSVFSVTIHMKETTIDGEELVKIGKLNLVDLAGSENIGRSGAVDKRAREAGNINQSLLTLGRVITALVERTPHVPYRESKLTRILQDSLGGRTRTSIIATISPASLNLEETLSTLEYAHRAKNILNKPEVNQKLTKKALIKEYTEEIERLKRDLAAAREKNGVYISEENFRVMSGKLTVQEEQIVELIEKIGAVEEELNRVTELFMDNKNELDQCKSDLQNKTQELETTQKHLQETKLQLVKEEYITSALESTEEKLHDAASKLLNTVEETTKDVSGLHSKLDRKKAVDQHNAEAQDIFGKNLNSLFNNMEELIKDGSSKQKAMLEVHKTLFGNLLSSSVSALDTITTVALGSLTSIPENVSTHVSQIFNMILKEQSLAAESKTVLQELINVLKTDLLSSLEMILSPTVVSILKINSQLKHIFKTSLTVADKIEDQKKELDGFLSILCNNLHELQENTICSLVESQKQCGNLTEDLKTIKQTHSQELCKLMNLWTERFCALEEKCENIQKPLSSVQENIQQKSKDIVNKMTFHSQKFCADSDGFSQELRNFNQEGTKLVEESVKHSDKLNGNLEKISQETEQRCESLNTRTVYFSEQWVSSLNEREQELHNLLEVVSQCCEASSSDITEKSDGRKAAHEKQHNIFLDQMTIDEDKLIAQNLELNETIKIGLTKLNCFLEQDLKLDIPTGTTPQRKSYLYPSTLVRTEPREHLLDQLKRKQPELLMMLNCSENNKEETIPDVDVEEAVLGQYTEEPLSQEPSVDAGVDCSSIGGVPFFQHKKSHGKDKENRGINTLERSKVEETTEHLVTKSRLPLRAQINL

[3] = Intrinsic clearance in mouse liver microsomes; type: ADME; conditions: read-out: CLH (converted)
A2780 [4] = assay: Antitumor activity against human A2780 cells xenografted in SCID mouse assessed as tumor volume ratio at 2.5 mg/kg, po bid for 5 days relative to untreated control; type: functional
[5] = Therapeutic index, ratio of MTD in human A2780 cells xenografted SCID mouse to ED50 for human A2780 cells xenografted in SCID mouse; type: cell-based; conditions: in vivo, read-out: TI
Mus musculus [6] = assay: Toxicity in human A2780 cells xenografted SCID mouse assessed as mortality at 10 mg/kg, po bid for 5 days; type: organism-based; parameters: dose 10 mg/kg, route oral; conditions: in vivo, 120 h
[7] = Oral absorption in mouse; type: ADME, organism-based; conditions: in vivo
Mus musculus [8] = assay: Toxicity in human A2780 cells xenografted SCID mouse assessed as mortality at 2.5 mg/kg, po bid for 5 days; type: organism-based; parameters: dose 2.5 mg/kg, route oral; conditions: in vivo, 120 h
Mus musculus [9] = assay: Toxicity in human A2780 cells xenografted SCID mouse assessed as induction of body weight loss at 10 mg/kg, po bid for 5 days; type: organism-based; parameters: dose 10 mg/kg, route oral; conditions: in vivo, 120 h
A2780 [10] = assay: Antitumor activity against human A2780 cells xenografted in SCID mouse assessed as tumor volume ratio at 10 mg/kg, po bid for 5 days relative to untreated control; type: functional
Mus musculus [11] = assay: Toxicity in human A2780 cells xenografted SCID mouse assessed as induction of body weight loss at 2.5 mg/kg, po bid for 5 days; type: organism-based; parameters: dose 2.5 mg/kg, route oral; conditions: in vivo, 120 h
A2780 [12] = assay: Antitumor activity against human A2780 cells xenografted in SCID mouse assessed as reduction in tumor volume dosed orally twice daily for 5 days relative to untreated control; type: functional, organism-based
A2780 [13] = assay: Antitumor activity against human A2780 cells xenografted in SCID mouse assessed as tumor volume ratio at 100 mg/kg, po bid for 5 days relative to untreated control; type: functional
Mus musculus [14] = assay: Toxicity in human A2780 cells xenografted SCID mouse assessed as mortality at 100 mg/kg, po bid for 5 days; type: organism-based; parameters: dose 100 mg/kg, route oral; conditions: in vivo, 120 h
Mus musculus [15] = assay: Toxicity in human A2780 cells xenografted SCID mouse assessed as induction of body weight loss at 100 mg/kg, po bid for 5 days; type: organism-based; parameters: dose 100 mg/kg, route oral; conditions: in vivo, 120 h
Mus musculus [16] = assay: Toxicity in human A2780 cells xenografted SCID mouse assessed as mortality at 0.625 mg/kg, po bid for 5 days; type: organism-based; parameters: dose 0.625 mg/kg, route oral; conditions: in vivo, 120 h
A2780 [17] = assay: Antitumor activity against human A2780 cells xenografted in SCID mouse assessed as tumor volume ratio at 0.625 mg/kg, po bid for 5 days relative to untreated control; type: functional
Mus musculus [18] = assay: Toxicity in human A2780 cells xenografted SCID mouse assessed as mortality at 5 mg/kg, po bid for 5 days; type: organism-based; parameters: dose 5 mg/kg, route oral; conditions: in vivo, 120 h
Mus musculus [19] = assay: Toxicity in human A2780 cells xenografted SCID mouse assessed as induction of body weight loss at 0.625 mg/kg, po bid for 5 days; type: organism-based; parameters: dose 0.625 mg/kg, route oral; conditions: in vivo, 120 h
Mus musculus [20] = assay: Toxicity in human A2780 cells xenografted SCID mouse assessed as induction of body weight loss at 5 mg/kg, po bid for 5 days; type: organism-based; parameters: dose 5 mg/kg, route oral; conditions: in vivo, 120 h
A2780 [21] = assay: Antitumor activity against human A2780 cells xenografted in SCID mouse assessed as tumor volume ratio at 5 mg/kg, po bid for 5 days relative to untreated control; type: functional

CC(C)C(=O)N1N=C(NC(=O)C(C)(C)C)SC1(CCNS(C)(=O)=O)c1ccccc1 (single isomer, unassigned; (+))
MI20 (HCT-116): >10000 nmol/L

CC(C)(C)C(=O)NC1=NN(C(=O)C(C)(C)C)C(CCNS(C)(=O)=O)(c2ccccc2)S1 (stereo not given)
GI50 [1]: 63 nM | IC50 [2]: 120 nM | MI20 (HCT-116): 71 nmol/L | CLint scaled [3]: 32.5 mL/min/kg

CC(=O)NCC1(c2ccccc2)SC(NC(=O)C(C)(C)C)=NN1C(=O)C(C)(C)C (stereo not given)
MI20 (HCT-116): 2200 nmol/L

CC1(c2ccccc2)SC(NC(=O)c2ccccc2)=NN1C(=O)c1ccccc1 (stereo not given)
MI20 (HCT-116): >10000 nmol/L

CCC(=O)N1N=C(NC(=O)C(C)(C)C)SC1(CCNS(C)(=O)=O)c1ccccc1 (racemic)
IC50 [2]: 111 nM | MI20 (HCT-116): 114 nmol/L | CLint scaled [3]: 14.8 mL/min/kg

CC(C)C(=O)N1N=C(NC(=O)C(C)(C)C)SC1(CCNS(C)(=O)=O)c1ccccc1 (single isomer, unassigned; (-)) [listing 1 of 2 here]
GI50 [1]: 63 nM | T/C (A2780 [4]): 0.5 | IC50 [2]: 48 nM | selectivity ratio [5]: 8 | MI20 (HCT-116): 40 nmol/L | Activity (Mus musculus [6]): Non-toxic | Fa [7]: 62% | Activity (Mus musculus [8]): Non-toxic | Activity (Mus musculus [9]): Non-toxic | T/C (A2780 [10]): 0.27 | Activity (Mus musculus [11]): Non-toxic

CC(C)CC(=O)NC1=NN(C(=O)CC(C)C)C(C)(c2ccccc2)S1 (stereo not given)
GI50 [1]: 190 nM | IC50 [2]: 520 nM | MI20 (HCT-116): 170 nmol/L

CCC(=O)N1N=C(NC(=O)C(C)(C)C)SC1(CCNS(C)(=O)=O)c1ccccc1 (stereo in doubt; (+)-12a)
MI20 (HCT-116): >10000 nmol/L

CCC(=O)N1N=C(NC(=O)C(C)(C)C)SC1(CCNS(C)(=O)=O)c1ccccc1 (single isomer, unassigned; (-)) [listing 1 of 2 here]
TGI (A2780 [12]): Dose-dependent effect

COCC1(c2ccccc2)SC(NC(=O)C(C)(C)C)=NN1C(=O)C(C)(C)C (stereo not given)
GI50 [1]: 560 nM | MI20 (HCT-116): 430 nmol/L

CCC(=O)NC1=NN(C(=O)CC)C(C)(c2ccccc2)S1 (stereo not given)
MI20 (HCT-116): 1700 nmol/L

CC(C)(C)C(=O)NC1=NN(C(=O)C(C)(C)C)C(CC#N)(c2ccccc2)S1 (stereo not given)
MI20 (HCT-116): >10000 nmol/L

CC(=O)NC1=NN(C(C)=O)C(C)(c2ccccc2)S1 (stereo not given)
GI50 [1]: 1000 nM | MI20 (HCT-116): 1100 nmol/L | T/C (A2780 [13]): 0.18 | Activity (Mus musculus [14]): Non-toxic | Activity (Mus musculus [15]): Non-toxic

CC(=O)N1N=C(N)SC1(C)c1ccccc1 (stereo not given)
MI20 (HCT-116): >10000 nmol/L

CC(C)(C)C(=O)NC1=NN(C(=O)C(C)(C)C)C(CS(C)(=O)=O)(c2ccccc2)S1 (stereo not given)
MI20 (HCT-116): >10000 nmol/L

CC(C)C(=O)N1N=C(NC(=O)C(C)(C)C)SC1(CCNS(C)(=O)=O)c1ccccc1 (racemic)
IC50 [2]: 110 nM | MI20 (HCT-116): 114 nmol/L | CLint scaled [3]: 14.8 mL/min/kg

CC(C)C(=O)NC1=NN(C(=O)C(C)C)C(C)(c2ccccc2)S1 (stereo not given)
GI50 [1]: 550 nM | MI20 (HCT-116): 460 nmol/L

CC(C)C(=O)N1N=C(NC(=O)C(C)(C)C)SC1(CCNS(C)(=O)=O)c1ccccc1 (single isomer, unassigned; (-)) [listing 2 of 2 here]
TGI (A2780 [12]): Dose-dependent effect

CCC(=O)N1N=C(NC(=O)C(C)(C)C)SC1(CCNS(C)(=O)=O)c1ccccc1 (single isomer, unassigned; (-)) [listing 2 of 2 here]
GI50 [1]: 560 nM | Activity (Mus musculus [16]): Non-toxic | IC50 [2]: 64 nM | MI20 (HCT-116): 55 nmol/L | T/C (A2780 [17]): 0.5 | Activity (Mus musculus [18]): Non-toxic | Activity (Mus musculus [19]): Non-toxic | Activity (Mus musculus [20]): Non-toxic | T/C (A2780 [21]): 0.08

CC(C)(C)C(=O)NC1=NN(C(=O)C(C)(C)C)C(CNS(C)(=O)=O)(c2ccccc2)S1 (stereo not given)
GI50 [1]: 17 nM | IC50 [2]: 44 nM | MI20 (HCT-116): 16 nmol/L
